Measured values taken from patent US9446019B2, “Sparstolonin B based pharmaceutical agent for neuroblastoma treatment” (University of South Carolina, priority 2013, dated 2016).

Experiments:
[1] = system: normal human cells (THP-1 cells, PMA-differentiated THP-1 macrophages, human umbilical vein endothelial cells, human aortic smooth muscle cells); test: Cytotoxic response in normal human cells; assay type: cell-based; conditions: 1-20 μM and up to about 100 μM
neuroblastoma cell lines = test: Cell cycle analysis by flow cytometry, all lines together; assay type: cell-based, human
Procedure: The cell cycle progression was determined by flow cytometer analysis. Neuroblastoma cells were treated with SsnB or DMSO in DMEM with 10% FBS. Cells were collected after trypsinization with trypsin-EDTA solution (Atlanta Biologicals) and washed with 1× phosphate buffered saline (PBS). Approximately 1×10^6 cells were suspended in 300 μl of ice-cold 1×PBS, fixed by adding 700 μl of chilled absolute ethanol (to make final ethanol concentration 70%) drop wise and incubated for overnight at −20° C. Cells were pelleted at 1000×rpm for 5 min at 4° C., washed with 1×PBS for 3 times and stained with propidium iodide (Sigma-Aldrich, St. Louis, Mo.) by adding 1 ml of propidium iodide staining solution (containing 20 μg/ml propidium iodide and 10 μg/ml DNase-free RNase A in 0.1% Triton X-100/PBS) for 1 h on ice in dark. Samples were subjected to fluorescence-activated cell sorting analyses utilizing Beckman Coulter flow cytometer (Beckman Coulter, Indianapolis, Ind.). A minimum of 10,000 events were analyzed in each experiment.
To test whether SsnB-induced cell growth inhibition occurs through cell cycle arrest, cell cycle distribution was analyzed by flow cytometry after DNA staining with propidium iodide.

[2] = system: human neuroblastoma cell lines (SH-SY5Y, SKNF-1, NGP, IMR-32 and SK-N-BE(2) cells); test: Cell morphology by phase contrast microscopy; assay type: cell-based
Text: Human neuroblastoma cell lines (SH-SY5Y, IMR-32, SK-N-BE(2) and SKNF-1 cells) were obtained from The American Type Culture Collection (ATCC; Manassas, Va.), and NGP cells were kind gift from Garrett M. Brodeur (The Children's Hospital of Philadelphia, Philadelphia, Pa.). All cell lines were maintained in complete Dulbecco's Modified Eagle's Medium (DMEM) supplemented with 10% fetal bovine serum (FBS; Atlanta Biologicals, Lawrenceville, Ga.) and 1× antibiotic-antimycotic solution (containing 100 U/ml penicillin, 100 μg/ml streptomycin and 0.25 μg/ml amphotericin B), and grown at 37° C. in a humidified incubator with 5% CO2. Stock solution of SsnB was prepared in dimethyl sulfoxide (DMSO). Cells treated with different concentrations of SsnB in DMEM with 10% FBS were grown for subsequent days. Cells treated with equal volume of DMSO were used as control.
To test the inhibitory effects of SsnB on neuroblastoma cell survival, human neuroblastoma cell lines of different genetic background (SH-SY5Y, SKNF-1, NGP, IMR-32 and SK-N-BE(2) cells) were treated with 1 μM, 5 μM, 10 μM or 20 μM concentration of SsnB under in vitro conditions. Following SsnB treatments, neuroblastoma cell were grown and were photographed under light microscope to evaluate the cell morphology.

[3] = system: SH-SY5Y and SK-N-BE(2) cells; test: Hanging-drop assay for spheroid formation; assay type: cell-based, human; conditions: day 12
Procedure: 3-D in vitro hanging drop assay was carried out to detect the SsnB effect in neuroblastoma spheroid formation. Neuroblastoma cells were prepared as single cell suspension in complete culture medium (DMEM+10% FBS) without or with SsnB (1 and 10 μM). Twenty microliter drops of each prepared cell suspension containing 20,000 cells/drop were pipetted into the inner side of the lid of a 60 mm diameter tissue culture dish. The lid was gently inverted and placed on top of the culture dish filled with 5 ml of sterile 1×PBS to humidify the culture chamber. The drops were incubated under tissue culture conditions (at 37° C. and 5% CO2) allowing the cells to form aggregate at the base of the droplet. The cells in each droplet were photographed using Olympus SZX2 stereo microscope (Olympus America Inc., Center Valley, Pa.).
As SsnB inhibited the formation of neuroblastoma colony in anchorage-independent agarose gel assay, the ability of SsnB to inhibit the initiation of neuroblastoma tumors was tested in a hanging drop assay method. In the hanging drop assay the cells under the force of gravity and surface tension start accumulating at the bottom of the hanging drop and join together to form a spheroid. […]

neuroblastoma cells = test: TUNEL assay for DNA fragmentation in cells; assay type: cell-based, human
Text: Increased levels of ROS are known to induce oxidative stress which in turn cleaves DNA that leads to cell death. SsnB-induced DNA fragmentation in neuroblastoma cells was examined by terminal deoxynucleotidyl transferase dUTP nick end labeling (TUNEL) assay. In this assay, nicked DNA is identified by the addition of fluorophore-labeled dUTPs by enzyme terminal deoxynucleotidyl transferase (TdT) to the terminal ends of damaged DNA in apoptotic cells. The TUNEL-positive cells were quantitated by ImageJ programme and plotted. […] However, such TUNEL-positive cells were not detected in DMSO- or SsnB (1 μM)-treated cells.

## O=c1occ2c3c(ccc(O)c13)Oc1ccc(O)cc1-2 [SsnB, 8,5′-dihydroxy-4-phenyl-5,2′-oxidoisocoumarin]
[1]
  cytotoxic response: No cytotoxic response
Neuroblastoma cell lines; SsnB 1 μM
  cell cycle progression vs DMSO: did not affect cell cycle progression
Neuroblastoma cell lines; SsnB 10 μM
  G0/G1 phase cells: decrease in G0/G1 phase cells
[2]; SsnB 10 μM and above, 2, 3 or 4 days depending on line
  cell morphology (rounded cells, indication of cell death) vs DMSO: changed the morphology
[2]; SsnB 1 or 5 μM, any cell line tested
  morphological changes: not significant
[3]; SsnB 1 μM
  spheroid formation: compact cell clusters were formed
[3]; SsnB 10 μM
  spheroid formation: unable to aggregate to form compact spheroids
Neuroblastoma cells; SsnB 1 μM, nonsignificant
  number of TUNEL-positive cells vs control: almost similar to DMSO-treated samples
Neuroblastoma cells; SsnB 10 μM, all neuroblastoma cells
  number of TUNEL-positive cells vs control: significantly higher
